According to PubChem BioAssay AID274 (DTP/NCI, 2004):
Where “and” joins values, the source holds several entries; their conditions need not be identical. Equal entries are not always repeated. Inconclusive results and toxic doses are left out.

System: BDF1 mice, Lewis lung carcinoma iv, survival T/C
Test: NCI In Vivo Anticancer Drug Screen. Data for tumor model Lewis Lung Carcinoma (intravenous) in B6D2F1 (BDF1) mice
Settings: endpoint: median survival time, higher = longer survival
Protocol: The antitumor activity of compounds was measured in mice bearing transplantable tumors. Survival or tumor size were measured and the results are expressed as the measurement made in the treated group (T) divided by the measurement made in the vehicle treated control group (C). The tumor model used in this assay is Lewis Lung Carcinoma (intravenous) in B6D2F1 (BDF1) mice

[1] = dose: 3.12 mg/kg/injection, schedule: Q01DX009 (ip), vehicle: Klucel (hydroxypropylcellulose) (HPC)
[2] = dose: 25.0 mg/kg/injection, schedule: Q01DX009 (ip), vehicle: Klucel (hydroxypropylcellulose) (HPC)

SMILES: CC1CCC(NC(=O)N(CCCl)N=O)CC1 (centres undefined)
- T/C (dose: 5.0 mg/kg/injection, schedule: Q01DX001 (ip), vehicle: saline): 100 % of control
- T/C (dose: 10.0 mg/kg/injection, schedule: Q01DX001 (ip), vehicle: saline): 100 % of control
- T/C (dose: 24.0 mg/kg/injection, schedule: Q01DX001 (ip), vehicle: saline with Tween-80): 156 % of control
- T/C (dose: 24.0 mg/kg/injection, schedule: Q06DX002 (ip), vehicle: saline with Tween-80): 176 % of control and 270 % of control
- T/C (dose: 30.0 mg/kg/injection, schedule: Q01DX001 (ip), vehicle: saline): 94 % of control and 103 % of control
- T/C (dose: 30.0 mg/kg/injection, schedule: Q06DX002 (ip), vehicle: saline with Tween-80): 220 % of control and 260 % of control
- T/C (dose: 36.0 mg/kg/injection, schedule: Q01DX001 (ip), vehicle: saline with Tween-80): 162 % of control and 185 % of control and 205 % of control
- T/C (dose: 40.0 mg/kg/injection, schedule: Q01DX001 (ip), vehicle: saline): 103 % of control

SMILES: COCCOC
- T/C (dose: 100.0 mg/kg/injection, schedule: Q01DX009 (ip), vehicle: saline): 100 % of control
- T/C (dose: 200.0 mg/kg/injection, schedule: Q01DX009 (ip), vehicle: saline): 102 % of control
- T/C (dose: 400.0 mg/kg/injection, schedule: Q01DX009 (ip), vehicle: saline): 100 % of control

SMILES: C=C(Cl)C(=NC(C)(C)C)Nc1ccccc1C
- T/C [1]: 100 % of control
- T/C (dose: 6.25 mg/kg/injection, schedule: Q01DX009 (ip), vehicle: Klucel (hydroxypropylcellulose) (HPC)): 110 % of control
- T/C (dose: 12.5 mg/kg/injection, schedule: Q01DX009 (ip), vehicle: Klucel (hydroxypropylcellulose) (HPC)): 107 % of control
- T/C [2]: 108 % of control

SMILES: O=P(O)(NCCCl)NCCCl
- T/C (dose: 25.0 mg/kg/injection, schedule: Q01DX001 (ip), vehicle: saline with Tween-80): 111 % of control
- T/C (dose: 50.0 mg/kg/injection, schedule: Q01DX001 (ip), vehicle: saline with Tween-80): 123 % of control
- T/C (dose: 100.0 mg/kg/injection, schedule: Q01DX001 (ip), vehicle: saline with Tween-80): 208 % of control

SMILES: C=C1C(C)C2C(Cc3ccccc3)NC(=O)C23C(OC(C)=O)/C=C/C(C)(O)CC(C)C/C=C/C3C1O (centres undefined)
- T/C (dose: 0.37 mg/kg/injection, schedule: Q01DX009 (ip), vehicle: Klucel (hydroxypropylcellulose) (HPC)): 93 % of control
- T/C (dose: 0.38 mg/kg/injection, schedule: Q01DX009 (ip), vehicle: Klucel (hydroxypropylcellulose) (HPC)): 107 % of control
- T/C (dose: 0.75 mg/kg/injection, schedule: Q01DX009 (ip), vehicle: Klucel (hydroxypropylcellulose) (HPC)): 102 % of control
- T/C (dose: 1.5 mg/kg/injection, schedule: Q01DX009 (ip), vehicle: Klucel (hydroxypropylcellulose) (HPC)): 96 % of control and 105 % of control
- T/C (dose: 3.0 mg/kg/injection, schedule: Q01DX009 (ip), vehicle: Klucel (hydroxypropylcellulose) (HPC)): 104 % of control and 106 % of control
- T/C (dose: 6.0 mg/kg/injection, schedule: Q01DX009 (ip), vehicle: Klucel (hydroxypropylcellulose) (HPC)): 101 % of control and 110 % of control
- T/C (dose: 12.0 mg/kg/injection, schedule: Q01DX009 (ip), vehicle: Klucel (hydroxypropylcellulose) (HPC)): 109 % of control

SMILES: CN(C)c1ccc2c(SCC(=O)OCC(=O)[C@@]3(O)CC[C@H]4[C@@H]5CCC6=CC(=O)C=C[C@]6(C)[C@H]5C(=O)C[C@@]43C)c3ccc(N(C)C)cc3nc2c1
- T/C [2]: 104 % of control
- T/C (dose: 50.0 mg/kg/injection, schedule: Q01DX009 (ip), vehicle: Klucel (hydroxypropylcellulose) (HPC)): 106 % of control
- T/C (dose: 100.0 mg/kg/injection, schedule: Q01DX009 (ip), vehicle: Klucel (hydroxypropylcellulose) (HPC)): 107 % of control
- T/C (dose: 200.0 mg/kg/injection, schedule: Q01DX009 (ip), vehicle: Klucel (hydroxypropylcellulose) (HPC)): 102 % of control
- T/C (dose: 400.0 mg/kg/injection, schedule: Q01DX009 (ip), vehicle: Klucel (hydroxypropylcellulose) (HPC)): 107 % of control

SMILES: Nc1ccnc(=O)[nH]1
- T/C (dose: 32.0 mg/kg/injection, schedule: Q01DX009 (ip), vehicle: Klucel (hydroxypropylcellulose) (HPC)): 111 % of control
- T/C (dose: 32.0 mg/kg/injection, schedule: Q01DX009 (ip), vehicle: saline with Tween-80): 103 % of control
- T/C (dose: 64.0 mg/kg/injection, schedule: Q01DX009 (ip), vehicle: Klucel (hydroxypropylcellulose) (HPC)): 98 % of control
- T/C (dose: 128.0 mg/kg/injection, schedule: Q01DX009 (ip), vehicle: Klucel (hydroxypropylcellulose) (HPC)): 95 % of control
- T/C (dose: 256.0 mg/kg/injection, schedule: Q01DX009 (ip), vehicle: Klucel (hydroxypropylcellulose) (HPC)): 102 % of control
- T/C (dose: 256.0 mg/kg/injection, schedule: Q01DX009 (ip), vehicle: saline with Tween-80): 119 % of control
- T/C (dose: 512.0 mg/kg/injection, schedule: Q01DX009 (ip), vehicle: Klucel (hydroxypropylcellulose) (HPC)): 86 % of control
- T/C (dose: 512.0 mg/kg/injection, schedule: Q01DX009 (ip), vehicle: saline with Tween-80): 107 % of control

SMILES: Nc1cc(=O)[nH][nH]1
- T/C (dose: 100.0 mg/kg/injection, schedule: Q01DX009 (ip), vehicle: saline with Tween-80): 99 % of control
- T/C (dose: 200.0 mg/kg/injection, schedule: Q01DX009 (ip), vehicle: saline with Tween-80): 91 % of control
- T/C (dose: 400.0 mg/kg/injection, schedule: Q01DX009 (ip), vehicle: saline with Tween-80): 95 % of control

SMILES: O=C1C(=O)c2cccnc2-c2ncccc21
- T/C (dose: 0.78 mg/kg/injection, schedule: Q01DX009 (ip), vehicle: Klucel (hydroxypropylcellulose) (HPC)): 116 % of control
- T/C (dose: 1.56 mg/kg/injection, schedule: Q01DX009 (ip), vehicle: Klucel (hydroxypropylcellulose) (HPC)): 91 % of control
- T/C [1]: 100 % of control

SMILES: CC(C)NC(=O)OCc1c(COC(=O)NC(C)C)c(-c2ccc(Cl)c(Cl)c2)n2c1CCC2
- T/C (dose: 1.56 mg/kg/injection, schedule: Q01DX009 (ip), vehicle: distilled water + Tween-80): 108 % of control
- T/C (dose: 3.13 mg/kg/injection, schedule: Q01DX009 (ip), vehicle: distilled water + Tween-80): 97 % of control
- T/C (dose: 6.25 mg/kg/injection, schedule: Q01DX009 (ip), vehicle: distilled water + Tween-80): 101 % of control
- T/C (dose: 12.5 mg/kg/injection, schedule: Q01DX009 (ip), vehicle: distilled water + Tween-80): 119 % of control
- T/C (dose: 50.0 mg/kg/injection, schedule: Q01DX009 (ip), vehicle: distilled water + Tween-80): 109 % of control
